4 molecules from patent US20240391931A1 (Bristol-Myers Squibb Company, priority 2021, published 2024) can be followed below.

Counter-ions that a name gives are not always drawn.

The target of assay [1] is T1, HER2YVMA (Homo sapiens, UniProt P04626, INS775YVMA). The assay is described as follows: HER2 signaling (pHER2) in Ba/F3-HER2YVMA cells. Type of assay: cell-based. The arrangement: expressed in transfected cells; host or cells: HEK293 (pool), Ba/F3 (clones), BEAS2B (clones); lentiviral vector pCDH-CMV-MCS-EF1-Neo. The settings on record: read-out: Ba/F3 YVMA pHER2 EC50. As to the method: Cell culture, plasmid cloning, and lentiviral transduction were carried out according to standard procedures. The Human HER2 cDNA construct in pCMV6-Entry for the HER2 wildtype (WT) expression was obtained from Origene. The HER2 cDNA including the 12-nucleotide insertion corresponding to YVMA insertion (HER2YVMA) was codon optimized, synthesized and cloned by GenScript (Piscataway, NJ) in pcDNA3.1. The lentiviral constructs expressing HER2YVMA and HER2 WT were sub-cloned using PCR at System Biosciences (SBI, Mountainview, CA) into lentiviral vectors pCDH-CMV-MCS-EF1-Neo and lentiviral particles were generated.
Engineered lines expressing HER2YVMA and HER2 WT were prepared in HEK293 (human embryonic kidney cells), Ba/F3 (Interleukin 3 (IL3)-dependent murine pro B cell line), and BEAS2B (primary immortalized human bronchial epithelial cell line). Ba/F3, BEAS2B, and HEK293 cells were obtained from the American Type Culture Collection (ATCC, Manassas, VA). Parental Ba/F3 cells were grown in suspension in complete RPMI 1640 supplemented with 10% FBS and 1% P/S and 10 ng/ml interleukin 3 (IL3, Sigma-Aldrich). Hek293 and BEAS2B cells were grown as monolayers in DMEM supplemented with 10% FBS and 1% P/S. All cells were maintained and propagated in a humidified 5% CO2 incubator at 37° C.
To generate Ba/F3, BEAS2B, and Hek-293 cells engineered with lentivirus to express HER2 WT or HER2YVMA, the cells were transduced with lentiviruses at multiplicity of infection (MOI) of 1 or 10; transduced cells were selected and maintained with G418 ([…]) (Geneticin, Life Technologies, Carlsbad, CA). Ba/F3 engineered cells were subjected to gradual withdrawal of interleukin 3 (IL-3, Sigma-Aldrich). After selection, IL3 independent Ba/F3 HER2YVMA, and BEAS2B HER2YVMA cells were cloned by limiting dilution. Hek293 HER2YVMA cells were used as pool. HER2 and phospho HER2 levels were confirmed by flow cytometery and immunoassay (MSD, Meso-Scale Discovery, Rockville, Maryland).
Compound treatment of Ba/F3-HER2YVMA suspension cells was done as described with minor modifications. Cells were plated at 300000 cell/well in 96-well round bottom plates in RPMI supplemented with 2% FBS and immediately dosed with compounds serially diluted in media without serum for a final concentration of 1% FBS, 0.1% DMSO. Cells were incubate with compounds for 1.5 hr, and plates were spun at 1500 rpm for 5 mins to remove media without disturbing pellet. Cells were lysed as described above.
HER2 signaling was evaluated using phospho (Tyr1248)/total ErbB2 whole cell lysate MSD plates (Meso-Scale Discovery, Gaithersburg, MD). The phospho HER2 signal was normalized to total HER2 for each sample; results are reported as % DMSO control. The normalized data was fitted using a sigmoidal curve analysis program (Graph Pad Prism version 6) with variable Hill slope to determine EC50 values.
The HER2 signaling results are provided in Table 4, under columns titled “BT474-pHER2 EC50”, “N87-pHER2 EC50”, and “NCI-H1781-pHER2 EC50”. Hek293-HER2YVMA ins fall under the heading “HEKYVMA-pHER2 EC50”, Ba/F3 HER2YVMA fall under the heading “Ba/F3 YVMA-pHER2 EC50” and BEAS2B-HER2YVMA fall under the heading “BEAS2B YVMA-pHER2 EC50”.

Assay [2] addresses T1, HER2YVMA. The assay is described as follows: HER2 occupancy assay in Ba/F3-HER2YVMA cells. Type of assay: cell-based. The arrangement: expressed in transfected cells; host or cells: Ba/F3 (clones); lentiviral vector pCDH-CMV-MCS-EF1-Neo. The settings on record: concentration at which 50% of HER2 is irreversible bound, read-out: Ba/F3 YVMA HER2 Occ. As to the method:
In order to assess free HER2 protein, a biotinylated probe was utilized. BT474, N87, and Ba/F3-HER2YVMA cells were treated with test compound as described for HER2 signaling. After compound treatment, cells were washed three times with cold phosphate buffer saline (PBS, Life Technologies, Carlsbad, CA), and lysed in modified occupancy lysis buffer prepared with an irreversible biotinylated tool compound (1 μM) in 25 mM Tris pH 7.5, 150 mM NaCl, 1% Triton, and supplemented with cOmplete, EDTA-free Protease inhibitor cocktail (Roche), Phosphatase Inhibitor Cocktails 2 and 3 (Sigma-Aldrich), and 1 mM PMSF (Sigma-Aldrich). To determine % occupancy, lysates were loaded into duplicate plates of the phospho ([…])/total ErbB2 whole cell lysate MSD kit (Meso-Scale Discovery) and incubated overnight. Plates were washed and incubation with either HER2-sulfoTag (1:50, Meso Scale Discovery) or Strep-Sulfo Tag (1:1000, Meso Scale Discovery), for detection of […]. A standard curve of untreated cells in serial dilution was included in each plate to independently fit streptavidin (Free HER2) and total HER2 MSD signals; non-specific signal (BSA control spots) was subtracted from each well. Free HER2 was then normalized by total HER2 for each sample. The results are reported as % DMSO control. The normalized data was fitted using a sigmoidal curve analysis program (Graph Pad Prism version 6) with variable Hill slope to determine EC50 values. The results are provided in Table 4, under columns titled “BT474-HER2 Occ”, “N87-HER2 Occ”, and “Ba/F3 YVMA-HER2 Occ”. HER2 Occ is the concentration of test compound at which 50% of HER2 is irreversible bound.

T1 sequence (P04626 with tags, fused parts or gaps INS775YVMA): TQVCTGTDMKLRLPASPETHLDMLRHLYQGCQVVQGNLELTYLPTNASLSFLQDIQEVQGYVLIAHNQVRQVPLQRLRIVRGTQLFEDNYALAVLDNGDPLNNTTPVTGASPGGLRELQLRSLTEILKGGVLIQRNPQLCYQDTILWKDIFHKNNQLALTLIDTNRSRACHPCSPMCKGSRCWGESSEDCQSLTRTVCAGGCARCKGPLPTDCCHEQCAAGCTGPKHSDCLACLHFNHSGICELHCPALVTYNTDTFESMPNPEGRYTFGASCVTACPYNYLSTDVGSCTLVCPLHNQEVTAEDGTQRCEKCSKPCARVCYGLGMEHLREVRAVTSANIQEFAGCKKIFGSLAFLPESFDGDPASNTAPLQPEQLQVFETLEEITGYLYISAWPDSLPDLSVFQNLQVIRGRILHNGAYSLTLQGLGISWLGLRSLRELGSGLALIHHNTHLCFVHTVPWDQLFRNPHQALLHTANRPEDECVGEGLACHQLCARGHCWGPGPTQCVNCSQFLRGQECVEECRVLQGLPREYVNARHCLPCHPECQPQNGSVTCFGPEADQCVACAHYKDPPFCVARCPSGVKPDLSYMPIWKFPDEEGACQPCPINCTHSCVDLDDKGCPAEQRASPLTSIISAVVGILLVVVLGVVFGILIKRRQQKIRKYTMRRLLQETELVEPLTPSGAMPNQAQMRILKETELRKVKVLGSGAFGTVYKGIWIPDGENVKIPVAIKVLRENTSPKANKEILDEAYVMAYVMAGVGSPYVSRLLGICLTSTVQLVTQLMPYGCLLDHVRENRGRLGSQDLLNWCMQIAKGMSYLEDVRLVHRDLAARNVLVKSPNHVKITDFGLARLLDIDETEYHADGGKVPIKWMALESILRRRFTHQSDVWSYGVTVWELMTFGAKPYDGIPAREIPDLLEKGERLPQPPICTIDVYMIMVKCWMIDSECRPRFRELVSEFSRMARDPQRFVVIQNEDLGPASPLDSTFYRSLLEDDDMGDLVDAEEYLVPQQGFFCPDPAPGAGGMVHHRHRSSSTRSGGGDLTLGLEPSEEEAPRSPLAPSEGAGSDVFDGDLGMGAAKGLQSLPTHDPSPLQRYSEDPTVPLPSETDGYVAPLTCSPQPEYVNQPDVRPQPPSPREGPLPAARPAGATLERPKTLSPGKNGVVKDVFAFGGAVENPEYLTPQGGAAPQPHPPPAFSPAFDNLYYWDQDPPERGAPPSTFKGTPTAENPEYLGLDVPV

Take `Cc1ccc(Oc2ccc(Nc3ncnc4sc5c(c34)CCN(C(=O)/C=C/CN3CC4CCC(C4)C3)C5)cc2C)cn1` [Compound 16, (E)-4-(3-azabicyclo[3.2.1]octan-3-yl)-1-(4-((3-methyl-4-((6-methylpyridin-3-yl)oxy)phenyl)amino)-5,8-dihydropyrido[4′,3′:4,5]thieno[2,3-d]pyrimidin-7(6H)-yl)but-2-en-1-one benzenesulfonate salt]: the EC50 at HER2YVMA [1] and at HER2YVMA [2] was < 100 nM in each case.
Consider `Cc1ccc(Oc2ccc(Nc3ncnc4sc5c(c34)CCN(C(=O)/C=C/CN(C)C)C5)cc2C)cn1` [Compound 8, (E)-4-(Dimethylamino)-1-(4-((3-methyl-4-((6-methylpyridin-3-yl)oxy)phenyl)amino)-5,6-dihydropyrido[4′,3′:4,5]thieno[2,3-d]pyrimidin-7(8H)-yl)but-2-en-1-one], for which the EC50 on HER2YVMA [1] and at HER2YVMA [2] was < 100 nM throughout.
Take `Cc1ccc(Oc2ccc(Nc3ncnc4sc5c(c34)CCN(C(=O)/C=C/CN3CCOCC3)C5)cc2C)cn1` [Compound 17, (E)-1-(4-((3-Methyl-4-((6-methylpyridin-3-yl)oxy)phenyl)amino)-5,6-dihydropyrido[4′,3′:4,5]thieno[2,3-d]pyrimidin-7(8H)-yl)-4-morpholinobut-2-en-1-one]: the EC50 on HER2YVMA [1] and on HER2YVMA [2] was < 100 nM throughout.
In the case of `Cc1cc(Nc2ncnc3sc4c(c23)CCN(C(=O)/C=C/CN2CCOCC2)C4)ccc1Oc1ccc2ncnn2c1` [Compound 12], on HER2YVMA [1], the EC50 is < 100 nM.
